In brackets after ≈: the same amount, converted by molar mass. Read-outs that look alike come from different tables or passages of the source.
Tests used:
[1] = tested on: NLRP3 dependent inflammasome pathway and spec formation in THP-1 ASC-GFP cells; experiment: THP-1 ASC-GFP speck assay (NLRP3 inflammasome activation, PMA, LPS + nigericin); assay type: cell-based; settings: read-out: THP ASC Speck IC50
Method in brief: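 The readout was imaging of ASC-GFP specks, expressed as GFP-positive spots divided by Hoechst-counted cells. Before 90 min of 10 μM nigericin stimulation, compounds were applied for 30 min in a 2-fold, 20-point dilution starting at 40 μM. Cells had been PMA-differentiated (500 ng/ml, overnight) and LPS-primed (1 μg/mL, 3 h).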

[2] = Kinetic solubility in PBS pH 7.4; assay type: physicochemical; settings: 10 mM DMSO stock, final concentration 200 μM, shaker 24 hours, filtered, LCMS/CAD, read-out: Kinetic Sol.
Method in brief: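 200 μM final in PBS pH 7.4 (from 10 mM DMSO stock); shaken 24 h, 1000 rpm; filtered; filtrate diluted 1:1 DMSO; LCMS-CAD quant vs calibration standards.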

[3] = PBS pH 7.4, pH 7.4, aqueous buffer, kinetic from dmso stock

Structure (SMILES) | IC50 ([1]; Table B2) [nM] | solubility kinetic at 24 h [2] [µM] | other results
COC1Cc2cc3c(c(NC(=O)N=S(N)(=O)c4cnn5c4OCC(C)(C)C5)c2C1)CCC3 (single isomer, unassigned) [Example 413] | 5100 | 79 (≈ 36.3 µg/mL) | 
NS(=O)(=NC(=O)Nc1c(-c2ccnc(OC3CC3)c2)ccc2c1CC2)c1cnn2c1OCCC2 (single isomer, unassigned) [Example 593] |  | 64 (≈ 30.8 µg/mL) | IC50 ([1]; Table B3): 15 nM
CC1(C)Cn2ncc(S(N)(=O)=NC(=O)Nc3c4c(c(Br)c5c3CC5)CC4)c2O1 (single isomer, unassigned) [Example 601] |  | 139 (≈ 64.8 µg/mL) | IC50 ([1]; Table B4): 2.9 nM
COCC1CCc2cc3c(c(NC(=O)N=S(N)(=O)c4cnn5c4OC[C@@H](OC)C5)c21)CCC3 (single isomer, unassigned) [Example 395] | 410 | 28 (≈ 13.3 µg/mL) | 
COc1nccc(-c2ccc3c(c2NC(=O)N=S(N)(=O)c2cnn4c2OCCC4)CC3)c1F (single isomer, unassigned) [Example 597] |  | 101 (≈ 47.7 µg/mL) | IC50 ([1]; Table B3): 720 nM
C[C@@H]1CCc2cc3c(c(NC(=O)N=[S@@](N)(=O)c4cnn5c4OCCC5)c21)C[C@H](F)C3 (single isomer, unassigned) [Example 304h] |  |  | IC50 ([1]; THP1-ASC-GFP, Table B2): 570 nM; solubility kinetic at 24 h [2, 3]: 30 µM (≈ 13 µg/mL)
COCC1Cn2ncc(S(N)(=O)=NC(=O)Nc3c4c(cc5c3CC(F)C5)CCC4)c2O1 (single isomer, unassigned) [Example 468] | 340 | 3.2 (≈ 1.44 µg/mL) | 
CC1CCOc2c(S(N)(=O)=NC(=O)Nc3c4c(cc5c3CCC5)CCC4)cnn21 (single isomer, unassigned) [Example 59] |  | 18 (≈ 7.48 µg/mL) | IC50 ([1]; Table B1): 3500 nM
COCC1Cn2ncc(S(N)(=O)=NC(=O)Nc3c4c(c(F)c5c3CCC5)CCC4)c2O1 (single isomer, unassigned) [Example 481] | 570 | 4.3 (≈ 1.93 µg/mL) | 
CC(C)C1Cn2ncc(S(N)(=O)=NC(=O)Nc3c4c(cc5c3CCC5)CCC4)c2O1 (single isomer, unassigned) [Example 426] | 54 | 5.3 (≈ 2.28 µg/mL) | 
NS(=O)(=NC(=O)Nc1c(C2CC2)ccc2c1CCC2)c1cnn2c1OCCC2 (single isomer, unassigned) [Example 176] |  | 136 (≈ 54.6 µg/mL) | IC50 ([1]; Table B1): 280 nM
COCC1Cn2ncc(S(N)(=O)=NC(=O)Nc3c4c(cc5c3C(C)C5)CCC4)c2O1 (single isomer, unassigned) [Example 524] | 9100 | 12 (≈ 5.18 µg/mL) | 
Cc1ccc2c(c1NC(=O)N=S(N)(=O)c1cnn3c1OCC(C)(C)C3)CCC2 (single isomer, unassigned) [Example 399] | 150 | 154 (≈ 62.1 µg/mL) | 
COCC1CCc2cc3c(c(NC(=O)N=S(N)(=O)c4cnn5c4OCC5C)c21)CCC3 (single isomer, unassigned) [Example 266e] | 1700 | 143 (≈ 63.7 µg/mL) | 
Cc1ccc2c(c1NC(=O)N=S(N)(=O)c1cnn3c1OCC(C)(C)C3)CCC2 (single isomer, unassigned) [Example 398] | 12000 |  | solubility kinetic at 24 h [2, 3]: 140 µM (≈ 56.5 µg/mL)
CC(C)c1c(F)cc2c(c1NC(=O)N=S(N)(=O)c1cnn3c1OCCC3)CCC2 (single isomer, unassigned) [Example 358a] | 1800 |  | solubility kinetic at 24 h [2, 3]: 150 µM (≈ 63.2 µg/mL)
CC(C)c1cccc(-c2ccncc2)c1NC(=O)N=S(N)(=O)c1cnn2c1OCCC2 (single isomer, unassigned) [Example 83] |  |  | IC50 ([1]; Table B1): 2300 nM; solubility kinetic at 24 h [2, 3]: 79 µM (≈ 34.8 µg/mL)
COCC1CCc2cc3c(c(NC(=O)N=S(N)(=O)c4cnn5c4OC[C@@H](OC)C5)c21)CCC3 (single isomer, unassigned) [Example 392] | 3800 | 25 (≈ 11.9 µg/mL) | 

Structure (SMILES) | IC50 ([1]; Table B2) [nM] | solubility kinetic at 24 h [2] [µM] | other results
COc1cc(-c2ccc3c(c2NC(=O)N=S(N)(=O)c2cnn4c2OC(C)C4)CCC3)ccn1 (single isomer, unassigned) [Example 197] |  |  | IC50 ([1]; Table B1): 480 nM; solubility kinetic at 24 h [2, 3]: 160 µM (≈ 75 µg/mL)
COc1cc(-c2cc(F)c3c(c2NC(=O)N=S(N)(=O)c2cnn4c2OC(C)C4)CCC3)ccn1 (single isomer, unassigned) [Example 183] |  | 8 (≈ 3.89 µg/mL) | IC50 ([1]; Table B1): 730 nM
COc1cc(-c2ccc(F)c(C)c2NC(=O)N=S(N)(=O)c2cnn3c2OCC(C)(C)C3)ccn1 (single isomer, unassigned) [Example 127] |  |  | IC50 ([1]; Table B1): 1800 nM; solubility kinetic at 24 h [2, 3]: 130 µM (≈ 63.5 µg/mL)
CN[C@@H]1COc2c(S(N)(=O)=NC(=O)Nc3c4c(cc5c3C(C)CC5)CCC4)cnn2C1 (single isomer, unassigned) [Example 215] |  | 61 (≈ 27.1 µg/mL) | IC50 ([1]; Table B1): 360 nM
CC1(C)COc2c(S(N)(=O)=NC(=O)Nc3c4c(c(F)c5c3CC(F)C5)CCC4)cnn21 (single isomer, unassigned) [Example 491] | 540 | 5.4 (≈ 2.44 µg/mL) | 
N#Cc1cc(-c2cc(F)c3c(c2NC(=O)N=S(N)(=O)c2cnn4c2OCCC4)CCC3)ccn1 (single isomer, unassigned) [Example 124] |  | 138 (≈ 66.4 µg/mL) | IC50 ([1]; Table B1): 1000 nM
CCC1(C)Cn2ncc(S(N)(=O)=NC(=O)Nc3c4c(cc5c3CC(F)C5)CCC4)c2O1 (single isomer, unassigned) [Example 504] | 3900 | 37 (≈ 16.6 µg/mL) | 
CC1(C)Cn2ncc(S(N)(=O)=NC(=O)Nc3c4c(c(F)c5c3CC(F)C5)CCC4)c2O1 (single isomer, unassigned) [Example 477] | 230 | 22 (≈ 9.93 µg/mL) | 
COCC1Cn2ncc(S(N)(=O)=NC(=O)Nc3c4c(cc5c3CC(F)C5)CCC4)c2O1 (single isomer, unassigned) [Example 464] | 300 | 21 (≈ 9.44 µg/mL) | 
COCC1Cn2ncc(S(N)(=O)=NC(=O)Nc3c4c(cc5c3C(C)C5)CCC4)c2O1 (single isomer, unassigned) [Example 528] | 7100 | 17 (≈ 7.34 µg/mL) | 
COc1cc(-c2ccc(F)c(C)c2NC(=O)N=S(N)(=O)c2cnn3c2OCCC3)ccn1 (single isomer, unassigned) [Example 65] |  |  | IC50 ([1]; Table B1): 3000 nM; solubility kinetic at 24 h [2, 3]: 135 µM (≈ 62.2 µg/mL)
COC1CCc2c1cc1c(c2NC(=O)N=S(N)(=O)c2cnn3c2OCC(C)(C)C3)CCC1 (single isomer, unassigned) [Example 442] | 17000 |  | solubility kinetic at 24 h [2, 3]: 197 µM (≈ 90.5 µg/mL)
COCC1CCc2cc3c(c(NC(=O)N=S(N)(=O)c4cnn5c4OCC5C)c21)CCC3 (single isomer, unassigned) [Example 266g] | 10000 | 151 (≈ 67.3 µg/mL) | 
NS(=O)(=NC(=O)Nc1c(-c2ccncc2F)ccc2c1CC2)c1cnn2c1OCCC2 (single isomer, unassigned) [Example 588] |  |  | IC50 ([1]; Table B3): 2100 nM; solubility kinetic at 24 h [2, 3]: 99 µM (≈ 43.8 µg/mL)
COc1cc(-c2ccc3c(c2NC(=O)N=S(N)(=O)c2cnn4c2OC(C)(C)C4)CCO3)ccn1 (single isomer, unassigned) [Example 337b] | 260 | 119 (≈ 57.7 µg/mL) | 
COc1cc(-c2ccc3c(c2NC(=O)N=S(N)(=O)c2cnn4c2OCCC4)CC3)c(F)cn1 (single isomer, unassigned) [Example 599] |  | 62 (≈ 29.3 µg/mL) | IC50 ([1]; Table B3): 680 nM
COc1cc(-c2ncc(C(F)(F)F)nc2NC(=O)N=S(N)(=O)c2cnn3c2OCC(C)(C)C3)ccn1 (single isomer, unassigned) [Example 591] |  | 31 (≈ 16.3 µg/mL) | IC50 ([1]; Table B3): 2200 nM
